From patent publication US20120251495A1, “PTERIN BASED THERAPIES FOR INFLAMMATORY CONDITIONS” (priority 2008, published 2012)

Tests used:
IDO = experiment: Serum tryptophan and kynurenine in HBV transgenic mice; assay type: in vivo
Procedure: Experimental design. DCP was administered per os, once daily for 14 days to randomly assigned HBV transgenic mice at 23, 7.3, and 2.3 mg/(kg d). ADV was used as a positive control at 10 mg/(kg d) using the same treatment schedule and vehicle (0.4% CMC). On day 14, mice were euthanized to collect serum and liver samples to perform liver HBV DNA, liver core and serum HBe assays, serum cytokine/chemokine profiles, and IDO metabolite assays.
Tryptophan and kynurenine measurements. Tryptophan (Trp) and kynurenine (Kyn) measurements were carried out as previously described (Widner B, Werner E R, Schennach H, Wachter H & Fuchs D. Simultaneous measurement of serum tryptophan and kynurenine by HPLC. Clin Chem 1997; 43:2424-2426). Kyn/Trp ratios were calculated for each mouse as an estimate of IDO activity.

plasma cytokines = experiment: Plasma cytokine levels by ELISA (LINCOplex), 1st experiment; assay type: in vivo, athymic nude (nu/nu) mice; details: for IL-10: limit of detection 24.6
Procedure: Cytokine levels in EDTA plasma from the mice in the 1st experiment were determined by ELISA assay at Alta Analytical Laboratories (San Diego, Calif.) using a LINCOplex Kit (Linco Research). Tryptophan (Trp) and kynurenine (Kyn) concentrations were measured from EDTA plasma samples by high pressure liquid chromatography (HPLC) using 3-nitro-L-tyrosine as the internal standard (Widner et al., 1997). To estimate IDO activity, the kynurenine to tryptophan ratio (Kyn/Trp) was calculated and expressed as μmol kynurenine/mmol tryptophan (Wirleitner, 2003). The values from five mice in the 1st experiment are not included in the summary statistics given in Table 1 for the following reasons. One mouse from each of the four treatment groups was used to test the effects of mega dosing, i.e., with (1:4 mol:mol) calcium pterin at 100 mg/kg/day after Day 60 of treatment, and are excluded. Also excluded was one mouse from the (1:4 mol:mol) calcium pterin (7 mg/kg/day) group which expired suddenly a few days before blood was collected. Cytokine measurements <3.2 pg/ml are reported as n.d. (not detectable) because the standard curves used in the ELISA assays were not calibrated below that level.
Cytokine levels in EDTA plasma from the mice in the 1st experiment were determined by ELISA assay at Alta Analytical Laboratories (San Diego, Calif.) using a LINCOplex Kit (Linco Research).
Cytokine levels in EDTA plasma from the mice in the 2nd experiment were measured at the UCSD Core Laboratory (San Diego, Calif.) using a multiplex assay kit for IL-1β, IL-2, IL-4, IL-5, IL-10, IL-12, IFN-γ, TNF-α and single ELISA kits for IL-6 and TGF-β1 by R&D Systems. EDTA plasma samples from two of the three ungavaged controls were lost due to handling error. For both the 1st and 2nd experiments, those measured cytokine values falling below the limits of detection were set to the higher assay limit for the purposes of the subsequent statistical analyses, and recorded as n.d. (not detectable) in Tables 1 through 3.

[1] = tested on: MDA-MB-231 human breast xenographs; details: Moheno, 2004, cited from earlier work
[2] = HBV mice generally, 2.3-23.0 mg/(kg day)
[3] = Table 4, 7 mg/kg/d, limit of detection 3.2
[4] = Table 4, 21 mg/kg/d, limit of detection 3.2

With `Nc1nc([O-])c2nccnc2n1.Nc1nc([O-])c2nccnc2n1.[Ca+2]` [DCP, dipterinyl calcium pentahydrate] the “serum Kyn” value (IDO; [2]) was “did not affect”, the “serum Kyn/Trp” value (IDO; [2]) was “did not affect” and the “serum tryptophan (Trp) versus controls” value (IDO; male HBV mice, 23.0 mg/(kg day)) was “significantly increased”.

For (1:4 mol:mol) calcium pterin [CaPterin], the IL10 (plasma cytokines; Table 1, 7 mg/kg/day, plasma) was 41.9 ± 22.7 pg/mL, the IL-6 (plasma cytokines; Table 1, 7 mg/kg/day, plasma) was 114.7 ± 43.2 pg/mL and the IL-12 (plasma cytokines; Table 1, 7 mg/kg/day, plasma) was 7.7 ± 4.4 pg/mL. The TNF-α (plasma cytokines; Table 1, 7 mg/kg/day, plasma) was 9.8 ± 1.5 pg/mL, the IL-1b (plasma cytokines; Table 1, 7 mg/kg/day, plasma at sacrifice, n.d. = <3.2 pg/ml) was 5.2 ± 2.0 pg/mL and the IFN-γ (plasma cytokines; Table 1, 7 mg/kg/day, plasma, n.d. = <3.2 pg/ml) was 4.7 ± 0.6 pg/mL. The IL10 (plasma cytokines; Table 1, 21 mg/kg/day, plasma) was 50.8 ± 32.3 pg/mL, the IL-6 (plasma cytokines; Table 1, 21 mg/kg/day, plasma) was 121.7 ± 78.1 pg/mL and the IL-12 (plasma cytokines; Table 1, 21 mg/kg/day, plasma) was 243.8 ± 237.8 pg/mL. For the same compound, the TNF-α (plasma cytokines; Table 1, 21 mg/kg/day, plasma) was 8.5 ± 1.6 pg/mL, the IL-1b (plasma cytokines; Table 1, 21 mg/kg/day, plasma at sacrifice, n.d. = <3.2 pg/ml) was 3.4 ± 0.2 pg/mL and the IFN-γ (plasma cytokines; [3]) was 4.7 ± .8 pg/mL. The IL-12 (plasma cytokines; [3]) was 7.7 ± 4.4 pg/mL, the TNF-α (plasma cytokines; [3]) was 9.8 ± 1.5 pg/mL and the IL-1β (plasma cytokines; Table 4, 7 mg/kg/d, limit of detection 4.1) was 5.8 ± 1.7 pg/mL. The IL-10 (plasma cytokines; Table 4, 7 mg/kg/d) was 49.0 ± 17.0 pg/mL, the IL-6 (plasma cytokines; Table 4, 7 mg/kg/d, plasma at sacrifice, limit of detection 3.9) was 114.7 ± 43.2 pg/mL and the IL-12 (plasma cytokines; [4]) was 243.8 ± 237.8 pg/mL. It also gave a TNF-α (plasma cytokines; [4]) of 8.5 ± 1.6 pg/mL, an IL-10 (plasma cytokines; Table 4, 21 mg/kg/d) of 61.5 ± 27.3 pg/mL and an IL-6 (plasma cytokines; Table 4, 21 mg/kg/d, plasma at sacrifice, limit of detection 3.9) of 121.7 ± 78.1 pg/mL. The “plasma IFN-γ response to dosage (ACIP model)” value (plasma cytokines; stepwise regression) was “decrease”, the “plasma IL-6 response to dosage (ACIP model)” value (plasma cytokines; stepwise regression) was “decrease” and the “plasma IL-10 response to dosage (ACIP model)” value (plasma cytokines; stepwise regression) was “increase”. The T/C ratio ([1]; 7 mg/kg/day) was 41% and the “antitumor efficacy against MDA-MB-231 human breast xenographs” value ([1]; nude mice) was “significant antitumor efficacy”.
